Columns and labels:
Conditions in all cases: stereoisomer not certain
[1] = RP, 150 × 2.1 mm, 2.6 µm, 40 °C, 0.35 mL/min, estimated dead time 0.94 min; A: water + 0.1% formic acid, pH 3; B: acetonitrile + 0.1% formic acid, pH 3; gradient (min/%B) 0/0 1/0 12.5/100 14/100 14.2/0 15/0
[2] = RP, 150 × 2.1 mm, 2.6 µm, 40 °C, 0.35 mL/min, estimated dead time 0.94 min; A: water + 0.1% formic acid, pH 3; B: acetonitrile + 0.1% formic acid, pH 3; gradient (min/%B) 0/0 1/5 7/45 8.5/80 10.5/80 11/5 12/5
[3] = RP, Waters ACQUITY UPLC BEH C18, 100 × 2.1 mm, 1.7 µm, 65 °C, 0.4 mL/min, estimated dead time 0.55 min; A: water + 0.1% formic acid, pH 3; B: 80% acetonitrile + 20% acetone + 0.1% formic acid, pH 3; gradient (min/%B) 0/0 5/100 5.5/0 6/0
[4] = RP, Agilent ZORBAX RRHD Eclipse Plus C18, 50 × 2.1 mm, 1.8 µm, 30 °C, 0.4 mL/min, estimated dead time 0.28 min; A: water + 0.1% formic acid, pH 3; B: acetonitrile + 0.1% formic acid, pH 3; gradient (min/%B) 0/1 5/10 8/25 9.1/99 10/99 12/1
[5] = RP, Agilent ZORBAX RRHD Eclipse Plus C18, 50 × 2.1 mm, 1.8 µm, 30 °C, 0.4 mL/min, estimated dead time 0.28 min; A: water + 0.1% formic acid, pH 3; B: acetonitrile + 0.1% formic acid, pH 3; gradient (min/%B) 0/1 5/10 8/25 9.1/99 10/99 12/99
[6] = RP, Waters ACQUITY UPLC HSS T3, 100 × 2.1 mm, 50 °C; A: water + 0.1% formic acid, pH 3; B: 30% methanol + 70% acetonitrile + 0.1% formic acid, pH 3; gradient (min/%B) 0/5 1/8 2/15 3/40 4/70 4.5/100 5/100 6.4/100 6.6/5 6.8/5 7/5
[7] = RP, Agilent ZORBAX Eclipse XDB-C18, 100 × 2.1 mm, 1.8 µm, 50 °C, 0.4 mL/min, estimated dead time 0.55 min; A: water + 0.1% formic acid, pH 3; B: methanol + 0.1% formic acid, pH 3; gradient (min/%B) 0/2 10/100 14.5/100 14.51/2 16.5/2
[8] = RP, Phenomenex Kinetex EVO C18, 100 × 2.1 mm, 2.6 µm, 40 °C, 0.4 mL/min, estimated dead time 0.55 min; A: water + 0.2% formic acid; B: acetonitrile + 0.2% formic acid; gradient (min/%B) 0/5 0.5/5 7/95 8/95 8.5/5 12/5
[9] = RP, Phenomenex Synergi Hydro-RP, 250 × 2 mm, 4 µm, 25 °C, 0.2 mL/min, estimated dead time 2.5 min; A: water + 0.1% formic acid, pH 3; B: acetonitrile + 0.1% formic acid, pH 3; gradient (min/%B) 0/0.5 7/0.5 12/12.5 25/16.3 47/35 48/65 50/65 50.1/0.5
[10] = RP, Waters ACQUITY UPLC BEH Shield RP18, 150 × 2.1 mm, 1.7 µm, 40 °C, 0.4 mL/min, estimated dead time 0.83 min; A: water + 0.1% formic acid, pH 3; B: acetonitrile + 0.1% formic acid, pH 3; gradient (min/%B) 0/0 30/50 31/100 37/100 37.1/0
[11] = RP, Waters ACQUITY UPLC HSS T3, 100 × 2.1 mm, 1.8 µm, 30 °C, 0.4 mL/min, estimated dead time 0.55 min; A: water + 0.1% formic acid, pH 3; B: acetonitrile + 0.1% formic acid, pH 3; gradient (min/%B) 0/0 2/0 15/100 22/100 22.1/0 26/0

SMILES	LC retention time [1]	LC retention time [2]	also measured
NCC(=O)c1ccccc1 [2 aminoacetophenone]	6.84 min	6.86 min	
O=C(O)CNC(=O)c1ccco1 [2-Furoylglycine]	2.51 min	2.35 min	LC retention time [3]: 1.51 min
O=C(O)CNC(=O)c1ccccc1O [2-Hydroxyhippuric acid]	5.5 min	5.38 min	LC retention time [4]: 6.83 min; LC retention time [5]: 6.69 min
O=C(O)c1cc2ccccc2[nH]1 [2-Indolecarboxylic acid]	6.06 min	6.07 min	
O=C(O)C(O)CCc1ccccc1 (centres undefined) [2-hydroxy-4-phenylbutyric acid]	6.54 min	6.6 min	
COc1cc(CCC(=O)O)cc(OC)c1OC [3-(3,4,5-Trimethoxyphenyl)propionic acid]	6.58 min	6.73 min	
Nc1c(O)cccc1C(=O)O [3-Hydroxyanthranilic acid]	3.21 min	2.89 min	
NC(=O)Cc1c[nH]c2ccccc12 [3-Indoleacetamide]	5.28 min	5.15 min	
O=C(O)CCCc1c[nH]c2ccccc12 [3-Indolebutyric acid]	7.63 min	7.97 min	
O=C(O)CCc1c[nH]c2ccccc12 [3-Indolepropionic acid]	7.09 min	7.34 min	LC retention time [6]: 3.76 min; LC retention time [3]: 2.64 min; LC retention time [7]: 5.54 min
COc1cccc(O)c1O [3-Methoxycatechol]	4.79 min	4.56 min	LC retention time [7]: 3.2 min
O=c1cc(O)c2ccccc2o1 [4-hydroxycoumarin]	6.51 min	6.59 min	
Cc1cc(=O)oc2cc(O)ccc12 [4-methylumbelliferone]	6.41 min	6.46 min	
O=C1CCC(Cc2ccc(O)c(O)c2)O1 (centres undefined) [5-(3',4'-Dihydroxyphenyl)-gamma-valerolactone]			LC retention time [8]: 4.13 min
O=C1CCC(Cc2cc(O)cc(O)c2)O1 (centres undefined) [5-(3',5'-Dihydroxyphenyl)-gamma-valerolactone]			LC retention time [8]: 3.72 min
O=C1CCC(Cc2ccc(O)c(OS(=O)(=O)O)c2)O1 (centres undefined) [5-(4'-Hydroxyphenyl)-gamma-valerolactone-3'-sulfate]			LC retention time [8]: 4.64 min
O=C1CCC(Cc2cc(O)cc(OC3OC(C(=O)O)C(O)C(O)C3O)c2)O1 (centres undefined) [5-(5'-Hydroxyphenyl)-gamma-valerolactone-3'-glucuronide]			LC retention time [8]: 2.34 min
COc1ccc2[nH]cc(CC(=O)O)c2c1 [5-Methoxyindoleacetic acid]	6.26 min	6.29 min	
O=C1CCC(Cc2cccc(OC3OC(C(=O)O)C(O)C(O)C3O)c2)O1 (centres undefined) [5-Phenyl-gamma-valerolactone-3'-glucuronide]			LC retention time [8]: 4.31 min
O=C1CCC(Cc2cccc(OS(=O)(=O)O)c2)O1 (centres undefined) [5-Phenyl-gamma-valerolactone-3'-sulfate]			LC retention time [8]: 4.96 min
COc1cc2c(CCNC(C)=O)c[nH]c2cc1O [6-Hydroxymelatonin]	5.14 min	5.05 min	
CC(C=CC1(O)C(C)=CC(=O)CC1(C)C)=CC(=O)O (centres undefined) [Abscisic acid]	6.9 min	7.12 min	
O=C(NC(O)C(=O)O)c1ccccc1 (stereo not drawn) [Alpha-hydroxyhippuric acid]	3.62 min	3.34 min	LC retention time [4]: 2.97 min; LC retention time [5]: 1.37 min

SMILES	LC retention time [1]	LC retention time [2]	also measured
O=c1ccc2cc(OC3OC(CO)C(O)C(O)C3O)c(O)cc2o1 (centres undefined) [Esculin]	4.11 min	3.94 min	
COc1cc(C=CC(=O)NCC(=O)O)ccc1O [Feruloylglycine]			LC retention time [8]: 4.33 min
O=C(O)c1ccc(OC2OC(C(=O)O)C(O)C(O)C2O)cc1 (centres undefined) [Hydroxybenzoic acid-4-glucuronide]			LC retention time [8]: 1.06 min
O=C(O)c1ccc(OS(=O)(=O)O)cc1 [Hydroxybenzoic acid-4-sulfate]			LC retention time [8]: 2.55 min
COc1cc(-c2oc3cc(O)cc(O)c3c(=O)c2O)ccc1OC1OC(C(=O)O)C(O)C(O)C1O (centres undefined) [Isorhamnetin 4'-O-glucuronide]	6.03 min	6.21 min	LC retention time [6]: 3.58 min
COc1ccc(C(=O)O)cc1OC1OC(C(=O)O)C(O)C(O)C1O (centres undefined) [Isovanillic acid-3-glucuronide]			LC retention time [8]: 2.34 min
CC1OC(OCC2OC(Oc3c(-c4ccc(O)cc4)oc4cc(O)cc(O)c4c3=O)C(O)C(O)C2O)C(O)C(O)C1O (centres undefined) [Kaempferol 3-O-rutinoside]	5.78 min	5.92 min	LC retention time [9]: 37 min
O=c1c(OC2OC(CO)C(O)C(O)C2O)c(-c2ccc(O)cc2)oc2cc(O)cc(O)c12 (centres undefined) [Kaempferol-3-O-glucoside]	5.95 min	6.11 min	LC retention time [10]: 14.7 min
COc1ccc2[nH]cc(CCNC(C)=O)c2c1 [Melatonin]	6.29 min	6.35 min	
COC(=O)Cc1c[nH]c2ccccc12 [Methyl indole acetate]	8.01 min	8.34 min	
CCC=CCC1C(=O)CCC1CC(=O)OC (centres undefined) [Methyl jasmonate]	7.64 min	7.97 min	LC retention time [7]: 7.77 min
CC(=O)NCCc1c[nH]c2ccc(O)cc12 [N-acetylserotonin]	4.69 min	4.5 min	
O=C1CC(c2ccc(O)cc2)Oc2cc(OC3OC(CO)C(O)C(O)C3O)cc(O)c21 (centres undefined) [Naringenin 7-O-glucoside]	6.02 min	6.17 min	
O=C1CC(c2ccc(OC3OC(C(=O)O)C(O)C(O)C3O)cc2)Oc2cc(O)cc(O)c21 (centres undefined) [Naringenin-4'-O-glucuronide]			LC retention time [8]: 5.18 min
O=C1CC(c2ccc(O)cc2)Oc2cc(OC3OC(C(=O)O)C(O)C(O)C3O)cc(O)c21 (centres undefined) [Naringenin-7-O-glucuronide]			LC retention time [8]: 5.12 min
O=c1cc(-c2ccc(O)c(O)c2)oc2c(C3OC(CO)C(O)C(O)C3O)c(O)cc(O)c12 (centres undefined) [Orientin]	5.3 min	5.29 min	
O=c1c(OC2OC(CO)C(O)C(O)C2O)c(-c2ccc(O)c(O)c2)oc2cc(O)cc(O)c12 (centres undefined) [Quercetin-3-O-galactoside]	5.66 min	5.74 min	
NCCc1c[nH]c2ccc(O)cc12 [Serotonin]	1.54 min	1.45 min	
COc1cc(-c2oc3cc(O)cc(O)c3c(=O)c2OC2OC(CO)C(O)C(O)C2O)cc(OC)c1O (centres undefined) [Syringetin-3-glucoside]	6 min	6.17 min	
O=S(=O)(O)c1[nH]c2ccccc2c1CCO [Tryptophol-2-sulfonate]	4.73 min	4.57 min	
OCCc1c[nH]c2ccccc12 [Tryptophol]	6.45 min	6.48 min	
O=c1ccc2ccc(O)cc2o1 [Umbelliferone]	5.77 min	7.69 min	LC retention time [11]: 9.65 min
O=C(O)c1cc(=O)c2ccccc2[nH]1 [kynurenic acid]	4.3 min	4.06 min	
